The values below come from ChEMBL document CHEMBL1135870, “4-Aminoquinolines as a novel class of NR1/2B subtype selective NMDA receptor antagonists” (Bioorg Med Chem Lett, 2002).

One series addresses Glutamate NMDA receptor. Kind of series: Binding affinity against N-methyl-D-aspartate glutamate receptor using [3H]25-6981 as radioligand. It counts as protein-complex assay.
Series [1] can be described thus: The ionization constant for the compound was tested using a potentiometric method. The series is classed as physicochemical.
A further series deals with Mus musculus. Kind of series: In vivo effective dose required for 50% inhibition of sound induced seizures upon intraperitoneal dose, 30 min before testing in DBA/2 mice. It counts as functional. As to conditions: ip.

For the compound `Cc1ccc(-c2cc(NCC(O)CO)c3ccccc3n2)cc1Cl` (stereo not given), the affinity on Glutamate NMDA receptor, expressed as Ki, was 17 nM. This counts as double-digit nanomolar.

In the case of `CCCCc1cc(NCC(O)CO)c2ccccc2n1` (stereo not given), at Glutamate NMDA receptor, affinity was put at a Ki of 33000 nM.

On to `OCC(O)CNc1cc(C2CCc3ccccc3C2)nc2ccccc12` (stereo in doubt; 20), for which, on Glutamate NMDA receptor, affinity was put at a Ki of 11 nM.

On to `Cc1ccc(-c2cc(NCC(O)CO)c3ccccc3n2)cc1` (stereo not given), for which the affinity on Glutamate NMDA receptor, expressed as Ki, was 23 nM. This Ki is about 2.1-fold higher than that of the compound before.

With `CC(O)CNc1cc(-c2ccccc2)nc2ccccc12` (stereo not given), the affinity at Glutamate NMDA receptor, expressed as Ki, was 260 nM.

As to `COCCNc1cc(-c2ccccc2)nc2ccccc12`, the Ki (as a rule, a measure of affinity in units of concentration, obtained from inhibition or displacement) on Glutamate NMDA receptor stood at 7500 nM.

As for `OCC(O)CNc1cc(-c2ccccc2)nc2ccccc12` (stereo not given), the pKa (commonly the negative logarithm of the acid dissociation constant) in series [1] is 8.4. In addition, the affinity at Glutamate NMDA receptor, expressed as Ki, was 260 nM.

On Glutamate NMDA receptor, `OCC(O)CNc1cc(-c2ccc(O)cc2)nc2ccccc12` (stereo not given) registered an inhibitory constant (Ki) of over 4000 nM.

On Glutamate NMDA receptor, `OCC(O)CNc1cc(-c2ccc3c(c2)CCCC3)nc2ccccc12` (stereo not given) had an inhibition constant Ki of 22 nM.

Regarding `COc1ccc(-c2cc(NCC(O)CO)c3ccccc3n2)cc1C` (stereo not given), at Glutamate NMDA receptor, the Ki came out at 26 nM. This Ki and that of the compound before are within 1.5-fold of each other.

For `COc1ccc(-c2cc(NC[C@H](C)O)c3ccccc3n2)cc1C`, it took a dose of 17 mg/kg to reach the 50% effect level in the series with Mus musculus (ED50). The compound also yielded an inhibition constant (Ki) on Glutamate NMDA receptor of 10 nM.

With `CC(C)Oc1ccc(-c2cc(NCC(O)CO)c3ccccc3n2)cc1` (stereo not given), the affinity on Glutamate NMDA receptor, expressed as Ki, was 500 nM. In other words, the sub-micromolar range.

Turning to `CC(=O)CNc1cc(-c2ccccc2)nc2ccccc12`, at Glutamate NMDA receptor, the affinity corresponds to a Ki of 7900 nM.

With `c1ccc(-c2ccc3ccccc3n2)cc1` [2-PHENYLQUINOLINE], in series [1], the pKa turned out to be 5.2. The compound also displayed a Ki on Glutamate NMDA receptor of over 35000 nM.

In the case of `C[C@@H](O)CNc1cc(-c2ccccc2)nc2ccccc12`, the inhibition constant (Ki) at Glutamate NMDA receptor was found to be 450 nM.

`C[C@H](O)CNc1cc(-c2ccccc2)nc2ccccc12` had a Ki at Glutamate NMDA receptor of 75 nM.

On to `Cc1cc(NCC(O)CO)c2ccccc2n1` (stereo not given), for which the Ki at Glutamate NMDA receptor was over 40000 nM.

On to `OCC(O)CNc1ccnc2ccccc12` (stereo not given), for which, on Glutamate NMDA receptor, the inhibition constant Ki is over 35000 nM.

Compound `OCC(O)CNc1cc(C2CCc3ccccc3C2)nc2ccccc12` (stereo in doubt; 19) displayed an inhibitory constant (Ki) on Glutamate NMDA receptor of 100 nM. That is a sub-micromolar value.

In turn, `OCCNc1cc(-c2ccccc2)nc2ccccc12` gave a Ki at Glutamate NMDA receptor of 110 nM.

`Nc1cc(-c2ccccc2)nc2ccccc12` gave a pKa in series [1] of 8.5. Further, affinity on Glutamate NMDA receptor was put at a Ki of 413 nM.

As for `CCCNc1cc(-c2ccccc2)nc2ccccc12`, at Glutamate NMDA receptor, the inhibitory constant (Ki) was 4900 nM. In other words, the single-digit micromolar range.

`COc1ccc(-c2cc(NCCO)c3ccccc3n2)cc1`: the ED50 (usually the dose at which the effect has come halfway, by size or by number of responders) with Mus musculus stood at 25 mg/kg. For the same compound, at Glutamate NMDA receptor, affinity was put at a Ki of 15 nM.

Compound `COc1ccc(-c2cc(NCC(O)CO)c3ccccc3n2)cc1` (stereo not given) gave a Ki on Glutamate NMDA receptor of 19 nM. In other words, the double-digit nanomolar range.

Compound `Cc1ccc(-c2cc(NC[C@H](C)O)c3ccccc3n2)cc1Cl` came in with an ED50 with Mus musculus of 12 mg/kg. Further, on Glutamate NMDA receptor, the Ki stood at 10 nM.

Consider `Cc1ccccc1-c1cc(NCC(O)CO)c2ccccc2n1` (stereo not given), for which the Ki at Glutamate NMDA receptor was 3700 nM.

For `OCC(O)CNc1cc(-c2ccc(Cl)cc2)nc2ccccc12` (stereo not given), the inhibitory constant (Ki) at Glutamate NMDA receptor was determined as 100 nM.

Compound `OCCNc1cc(N2CCc3ccccc3C2)nc2ccccc12` returned an ED50 in the series on Mus musculus of under 12 mg/kg. Further, the affinity at Glutamate NMDA receptor corresponds to a Ki of 3.5 nM.
